From patent publication US20200163943A1, “METHODS FOR TREATING DRAVET SYNDROME” (Cavion, Inc., priority 2017, published 2020)

Columns and labels:
N-Type = N-Type (Homo sapiens, UniProt Q00975); experiment: N-Type calcium channel counter-screen; type: biochemical
L-Type = L-Type calcium channel counter-screen; type: biochemical
[1] = Pharmacokinetics in monkey; type: in vivo
Panlabs = Panlabs selectivity panel
Papp permeability = type: in vitro ADME; conditions: not told
Na Channel = Na Channel counter-screen; type: biochemical
α1I [2] = biological target: T1, α1I (Homo sapiens, UniProt Q9P0X4); experiment: α1I potency; type: cell-based
Pharmacokinetics in rat = type: in vivo
WAG/Rij = WAG/Rij in vivo model; conditions: 10 mpk, @4 hr
hERG = hERG (Homo sapiens, UniProt Q12809); experiment: hERG counter-screen; type: biochemical
α1I + Kir = α1I + Kir (Homo sapiens, UniProt Q9P0X4); experiment: α1I + Kir potency; type: cell-based
α1I [3] = biological target: T1, α1I; experiment: α1I VC (voltage clamp) at set holding potentials; type: cell-based
Pharmacokinetics in dog = type: in vivo
PGP = PGP (Homo sapiens, UniProt P08183); experiment: PGP substrate assay; type: in vitro ADME
[4] = plasma, 3 mg/kg, PO (1% methylcellulose), 3 mpk
[5] = plasma, 10 mg/kg, PO (1% methylcellulose), 10 mpk
[6] = plasma, 1 mg/kg, PO (1% methylcellulose), 1 mpk

T1 sequence (Q9P0X4 whole entry): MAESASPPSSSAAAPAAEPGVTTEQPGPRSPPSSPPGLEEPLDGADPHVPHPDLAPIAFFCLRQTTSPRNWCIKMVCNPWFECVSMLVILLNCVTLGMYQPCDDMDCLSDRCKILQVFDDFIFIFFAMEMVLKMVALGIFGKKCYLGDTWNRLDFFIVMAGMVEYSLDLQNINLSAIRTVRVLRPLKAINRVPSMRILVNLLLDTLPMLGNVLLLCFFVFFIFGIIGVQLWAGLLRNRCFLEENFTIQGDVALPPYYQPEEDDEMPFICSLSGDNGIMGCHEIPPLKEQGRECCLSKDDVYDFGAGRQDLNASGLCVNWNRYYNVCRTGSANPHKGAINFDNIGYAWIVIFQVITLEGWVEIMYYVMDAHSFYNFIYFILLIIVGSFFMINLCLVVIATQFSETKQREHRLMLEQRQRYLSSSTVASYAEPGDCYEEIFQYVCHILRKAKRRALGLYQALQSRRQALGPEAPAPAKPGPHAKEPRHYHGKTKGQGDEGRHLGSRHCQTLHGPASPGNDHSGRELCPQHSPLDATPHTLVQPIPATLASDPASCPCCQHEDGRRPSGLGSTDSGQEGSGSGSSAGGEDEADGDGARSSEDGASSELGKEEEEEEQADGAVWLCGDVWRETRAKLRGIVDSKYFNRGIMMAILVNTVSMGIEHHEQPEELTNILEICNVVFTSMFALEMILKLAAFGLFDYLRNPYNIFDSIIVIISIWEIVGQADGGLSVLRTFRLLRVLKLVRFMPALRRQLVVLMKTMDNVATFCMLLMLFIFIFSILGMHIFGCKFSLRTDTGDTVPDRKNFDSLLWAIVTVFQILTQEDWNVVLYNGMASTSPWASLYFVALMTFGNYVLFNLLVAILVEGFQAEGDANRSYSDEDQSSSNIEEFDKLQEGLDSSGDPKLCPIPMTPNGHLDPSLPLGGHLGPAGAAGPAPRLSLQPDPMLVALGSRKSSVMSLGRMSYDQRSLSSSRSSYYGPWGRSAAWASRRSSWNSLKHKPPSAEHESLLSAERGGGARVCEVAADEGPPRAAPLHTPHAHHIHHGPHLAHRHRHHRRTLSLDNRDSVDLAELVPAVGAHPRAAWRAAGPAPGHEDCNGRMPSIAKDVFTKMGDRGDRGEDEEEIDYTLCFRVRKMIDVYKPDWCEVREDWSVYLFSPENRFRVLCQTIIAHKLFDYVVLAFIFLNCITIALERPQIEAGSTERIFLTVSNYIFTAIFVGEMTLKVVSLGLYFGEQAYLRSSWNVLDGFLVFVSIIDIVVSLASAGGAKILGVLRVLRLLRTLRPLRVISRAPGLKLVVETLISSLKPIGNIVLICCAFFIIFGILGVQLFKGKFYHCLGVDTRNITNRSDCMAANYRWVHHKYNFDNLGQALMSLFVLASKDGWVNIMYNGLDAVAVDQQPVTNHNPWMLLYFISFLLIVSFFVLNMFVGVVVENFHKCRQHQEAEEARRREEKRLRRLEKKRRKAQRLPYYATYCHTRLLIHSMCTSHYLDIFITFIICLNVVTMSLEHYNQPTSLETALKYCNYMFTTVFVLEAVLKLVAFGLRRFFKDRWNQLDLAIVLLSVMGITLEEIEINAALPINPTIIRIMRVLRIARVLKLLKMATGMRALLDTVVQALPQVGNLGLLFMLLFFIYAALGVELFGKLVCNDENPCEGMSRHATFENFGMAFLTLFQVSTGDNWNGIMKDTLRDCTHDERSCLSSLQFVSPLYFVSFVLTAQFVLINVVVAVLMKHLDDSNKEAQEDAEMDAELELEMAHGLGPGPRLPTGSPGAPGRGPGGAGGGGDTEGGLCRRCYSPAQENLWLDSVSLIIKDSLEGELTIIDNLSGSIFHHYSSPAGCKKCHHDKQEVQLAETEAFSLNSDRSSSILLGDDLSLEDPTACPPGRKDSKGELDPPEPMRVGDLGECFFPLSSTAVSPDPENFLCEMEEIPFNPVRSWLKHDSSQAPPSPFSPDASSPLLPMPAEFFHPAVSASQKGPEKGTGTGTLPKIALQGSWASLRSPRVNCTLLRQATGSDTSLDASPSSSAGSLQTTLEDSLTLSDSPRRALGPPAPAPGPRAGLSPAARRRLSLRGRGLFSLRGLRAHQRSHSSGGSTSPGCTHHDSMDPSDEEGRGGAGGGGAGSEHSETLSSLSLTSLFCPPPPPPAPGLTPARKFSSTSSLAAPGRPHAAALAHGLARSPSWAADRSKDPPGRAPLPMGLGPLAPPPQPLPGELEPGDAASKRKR
Chain of hERG (Q12809 whole entry): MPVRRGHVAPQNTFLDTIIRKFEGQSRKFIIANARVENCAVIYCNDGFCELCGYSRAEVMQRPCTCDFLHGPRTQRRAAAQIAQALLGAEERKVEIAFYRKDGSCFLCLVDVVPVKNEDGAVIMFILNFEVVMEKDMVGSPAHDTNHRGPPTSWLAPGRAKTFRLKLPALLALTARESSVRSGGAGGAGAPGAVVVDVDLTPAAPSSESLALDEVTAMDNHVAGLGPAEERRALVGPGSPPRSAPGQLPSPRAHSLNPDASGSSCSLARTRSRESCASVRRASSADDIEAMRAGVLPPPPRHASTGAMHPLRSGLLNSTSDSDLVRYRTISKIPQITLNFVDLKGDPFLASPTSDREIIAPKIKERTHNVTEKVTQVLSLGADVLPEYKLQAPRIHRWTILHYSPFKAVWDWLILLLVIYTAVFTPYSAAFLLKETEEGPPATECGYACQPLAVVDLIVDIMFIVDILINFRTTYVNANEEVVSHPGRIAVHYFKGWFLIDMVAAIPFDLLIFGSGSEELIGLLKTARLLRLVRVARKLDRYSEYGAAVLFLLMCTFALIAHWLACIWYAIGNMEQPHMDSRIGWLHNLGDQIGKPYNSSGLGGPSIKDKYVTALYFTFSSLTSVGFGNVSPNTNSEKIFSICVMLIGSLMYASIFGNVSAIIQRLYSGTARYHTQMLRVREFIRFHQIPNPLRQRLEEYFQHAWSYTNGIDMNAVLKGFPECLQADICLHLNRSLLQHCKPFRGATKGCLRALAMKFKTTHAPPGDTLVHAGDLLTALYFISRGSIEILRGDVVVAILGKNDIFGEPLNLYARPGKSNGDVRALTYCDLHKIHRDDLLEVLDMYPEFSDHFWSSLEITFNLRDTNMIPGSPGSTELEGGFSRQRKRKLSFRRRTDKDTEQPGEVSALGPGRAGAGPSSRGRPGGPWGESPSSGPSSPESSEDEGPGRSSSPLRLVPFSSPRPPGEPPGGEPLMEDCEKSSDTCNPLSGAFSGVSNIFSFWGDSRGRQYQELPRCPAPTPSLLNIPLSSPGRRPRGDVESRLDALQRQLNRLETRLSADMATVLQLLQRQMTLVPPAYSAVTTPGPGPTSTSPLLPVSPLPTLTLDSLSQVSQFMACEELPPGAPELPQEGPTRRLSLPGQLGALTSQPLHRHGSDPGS
Chain of α1I + Kir (Q9P0X4 whole entry): as the sequence (Q9P0X4 whole entry) above
Chain of PGP (P08183 whole entry): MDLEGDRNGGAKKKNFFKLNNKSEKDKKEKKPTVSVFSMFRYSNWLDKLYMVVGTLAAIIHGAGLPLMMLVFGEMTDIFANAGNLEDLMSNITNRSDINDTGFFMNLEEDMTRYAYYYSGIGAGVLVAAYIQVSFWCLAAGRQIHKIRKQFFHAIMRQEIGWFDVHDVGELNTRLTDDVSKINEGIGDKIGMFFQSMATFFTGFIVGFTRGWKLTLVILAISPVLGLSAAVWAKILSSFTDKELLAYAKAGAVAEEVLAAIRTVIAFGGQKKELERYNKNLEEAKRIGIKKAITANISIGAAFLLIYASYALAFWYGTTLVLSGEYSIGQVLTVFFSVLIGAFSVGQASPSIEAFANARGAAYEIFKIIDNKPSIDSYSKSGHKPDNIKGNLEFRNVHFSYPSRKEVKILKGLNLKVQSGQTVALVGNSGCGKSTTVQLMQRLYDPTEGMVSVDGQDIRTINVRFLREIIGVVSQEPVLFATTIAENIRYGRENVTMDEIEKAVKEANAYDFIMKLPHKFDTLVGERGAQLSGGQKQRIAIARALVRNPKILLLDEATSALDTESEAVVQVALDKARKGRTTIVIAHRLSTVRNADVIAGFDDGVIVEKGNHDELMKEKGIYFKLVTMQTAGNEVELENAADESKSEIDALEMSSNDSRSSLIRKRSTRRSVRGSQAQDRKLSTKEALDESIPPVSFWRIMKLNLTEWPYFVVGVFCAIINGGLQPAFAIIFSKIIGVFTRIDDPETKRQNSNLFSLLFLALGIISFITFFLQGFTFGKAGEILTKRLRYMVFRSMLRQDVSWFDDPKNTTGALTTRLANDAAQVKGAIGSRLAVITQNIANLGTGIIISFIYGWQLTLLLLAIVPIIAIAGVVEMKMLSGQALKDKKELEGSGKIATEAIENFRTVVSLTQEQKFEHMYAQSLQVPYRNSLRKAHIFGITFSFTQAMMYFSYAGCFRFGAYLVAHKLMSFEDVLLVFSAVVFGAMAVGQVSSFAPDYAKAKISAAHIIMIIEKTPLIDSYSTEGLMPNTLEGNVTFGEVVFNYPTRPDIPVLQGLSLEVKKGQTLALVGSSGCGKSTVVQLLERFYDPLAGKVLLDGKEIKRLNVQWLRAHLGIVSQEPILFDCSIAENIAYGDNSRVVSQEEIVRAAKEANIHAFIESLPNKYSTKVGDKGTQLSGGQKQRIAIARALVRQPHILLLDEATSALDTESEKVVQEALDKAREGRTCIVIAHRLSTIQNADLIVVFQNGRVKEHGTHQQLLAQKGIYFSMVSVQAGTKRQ

C[C@@H](NC(=O)Cc1ccc(C2CC2)cc1)c1ccc(OCC(F)(F)F)cn1 [TTA-A2]
IC50 (N-Type): > 10 µM | IC50 (L-Type): > 10 µM | Clp ([1]; IV (DMSO)): 17 mL/min/kg | T1/2 ([1]; IV (DMSO)): 54 min | F ([1]; PO (1% methylcellulose), 3 mpk): 7% | AUC [1, 4]: 0.6 µM·h | Cmax [1, 4]: 300 nM | Panlabs hits >50% @10 uM (Panlabs): 0 hits >50% @10 uM | Papp (Papp permeability): 490 ×10⁻⁶ cm/s | IC50 (Na Channel): > 10 µM | IC50 (α1I [2]): 9 nM | Clp (Pharmacokinetics in rat; IV (DMSO)): 6 mL/min/kg | F (Pharmacokinetics in rat; PO (1% methylcellulose), 10 mpk): 68% | AUC (Pharmacokinetics in rat; [5]): 46 µM·h | Cmax (Pharmacokinetics in rat; [5]): 7.6 µM | half-life (Pharmacokinetics in rat; plasma, IV (DMSO)): 96 min | WAG/Rij inhibition (WAG/Rij): 87% inhibition@4 hr | IC50 (hERG): > 10 µM | IC50 (α1I + Kir): 296 nM | IC50 (α1I [3]; −80 mV, read-out: a1I VC (−80 mV)): 98 nM | IC50 (α1I [3]; −100 mV, read-out: α1I VC (−100 mV)): 4200 nM | Clp (Pharmacokinetics in dog; IV (DMSO)): 0.9 mL/min/kg | T1/2 (Pharmacokinetics in dog; IV (DMSO)): 11 h | F (Pharmacokinetics in dog; PO (1% methylcellulose), 1 mpk): 43% | AUC (Pharmacokinetics in dog; [6]): 23 µM·h | Cmax (Pharmacokinetics in dog; [6]): 2100 nM | PGP (PGP): 0.7
